Structures are written as SMILES. Several values for one entry are separate records, joined by “and”; a condition that tells them apart may be missing. Identical values can stand only once. Like-named read-outs stand apart in the source and are kept apart here.

Data set [1] deals with Flag-BCL-xL (WT and lysine mutants). Put plainly: Degradation of Flag-BCL-xL WT and lysine mutants in transfected 293T cells. The note with it: DMSO = 100. The class given is cell-based, human. How it is done:
Cells were collected, washed once with ice-cold phosphate-buffered saline, pH 7.2 (PBS, cat. no. 20012027; Thermo Fisher Scientific) and lysed in RIPA lysis buffer (Cat. No. BP-115DG, Boston Bio Products, Ashland, MA, USA) supplemented with protease and phosphatase inhibitor cocktails (Cat. No. PPC1010, Sigma-Aldrich, St. Louis, MO, USA) through sonication. The samples were centrifuged at 14,000 r.p.m. for 5 min and the supernatants were transferred into a new tube. The protein concentration in the supernatants was determined using the Pierce BCA protein Assay kit (cat. no. 23225, Thermo Fisher Scientific). The protein concentration was normalized, and the samples were reduced in 4× Laemmli’s SDS-sample buffer (cat. no. BP-110R, Boston Bio Products) and denatured at 95 °C for 5 min. An equal amount of protein samples (20–40 μg per lane) were resolved using precast 4–20% Tris-glycine gels (Mini-PROTEAN TGX, cat. no. 456–1094, Bio-Rad), and resolved proteins were transferred onto 0.2-µm pore size polyvinylidene difluoride (PVDF) blotting membranes (cat. no. LC2002, Thermo Fisher Scientific) using mini trans-blot electrophoretic transfer cell (Bio-Rad). The membranes were blocked with non-fat dry milk (5% wt/vol) in 1× Tris-buffered saline-Tween-20 (TBST, cat. no. J77500, Affymetrix) for 1 h at room temperature, and were subsequently probed with primary antibodies at a predetermined optimal concentration in non-fat dry milk (5% wt/vol in TBST) overnight at 4 °C. The membranes were washed three times (5 min each) in TBST and then incubated with horse radish peroxidase (HRP)-conjugated secondary antibodies for 1 h at room temperature. Following sufficient washing with TBST, the membranes were exposed with chemiluminescent HRP substrate (cat. no. WBKLS0500, MilliporeSigma), and the signal was detected using the ChemiDoc MP Imaging System (Bio-Rad) and quantified using the ImageJ (v1.53a) software from NIH.
Plasmids were purified on miniprep columns according to the manufacturer’s protocol (Cat. No. 27106 Qiagen, Germantown, MD, USA). The construction of Flag-BCL-xL (pDL2009) and Flag-BCL-xL-K-ko (pDL2129) were described previously. Flag-BCL-2 was a gift from Clark Distelhorst (Addgene plasmid # 18003, Watertown, MA, USA). Plasmids Flag-BCL-xL-K16-only, Flag-BCL-xL-K20-only, Flag-BCL-xL-K157-only, Flag-BCL-xL-K-ko-R34K, Flag-BCL-xL-K-ko-R102K, Flag-BCL-xL-K-ko-R132K, Flag-BCL-xL-K-ko-G186K, Flag-BCL-2-K17R, Flag-BCL-2-K22R, and Flag-BCL-2-K17/22R were constructed by using Q5® Site-Directed Mutagenesis Kit (Cat. No. E0554S, NEB, Ipswich, MA, USA) and the following primer sets. Flag-BCL-xL-K-ko (pDL2129) or Flag-BCL-2 was used as the template. Flag-BCL-xL-K16-only: forward (5′-[…]a[…]-3′) and reverse (5′-[…]-3′); Flag-BCL-xL-K20-only: forward (5′-[…]a[…]-3′) and reverse (5′-[…]-3′); Flag-BCL-xL-K157-only: forward (5′-[…]a[…]-3′) and reverse (5′-[…]-3′); Flag-BCL-xL-R34K: forward (5′-[…]a[…]-3′) and reverse (5′-[…]-3′); Flag-BCL-xL-R102K: forward (5′-[…]aa[…]-3′) and reverse (5′-[…]-3′); Flag-BCL-xL-R132K: forward (5′-[…]aa[…]-3′) and reverse (5′-[…]-3′); Flag-BCL-xL-G186K: forward (5′-[…]aa[…]-3′) and reverse (5′-[…]-3′); Flag-BCL-2-K17R: forward (5′-[…]g[…]-3′) and reverse (5′-[…]-3′); Flag-BCL-2-K22R: forward (5′-[…]g[…]-3′) and reverse (5′-[…]-3′); Flag-BCL-2-K17/22R: forward (5′-cattatag[…]-3′) and reverse (5′-gatgtacc[…]-3′). DNA sequences in all these plasmids were authenticated by automatic sequencing. […] The cells were harvested using RIPA lysis buffer containing protease and phosphatase inhibitor as mentioned above. The primers used in this study are also listed in Supplementary Table 1.

Data set [2] can be described thus: Viability (MTS) of Hela cells. Conditions: human, Hela cells; for viability at 72 h, 0.00137174 uM: MTS absorbance 490, Conc 0.00137174 uM; for viability at 72 h, 0.00411523 uM: MTS absorbance 490, Conc 0.00411523 uM; for viability at 72 h, 0.037037 uM: MTS absorbance 490, Conc 0.037037 uM; for viability at 72 h, 0.111111 uM: MTS absorbance 490, Conc 0.111111 uM; for viability at 72 h, 0.333333 uM: MTS absorbance 490, Conc 0.333333 uM; for viability at 72 h, 1 uM: MTS absorbance 490, Conc 1 uM; for viability at 72 h, 3 uM: MTS absorbance 490, Conc 3 uM. The class given is cell-based, human. Summed up:
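Adherent cells treated after overnight attachment, nine concentrations in triplicate. After 72 h, MTS/PMS added and incubated 4 h at 37 °C before absorbance at 490 nm. Background-subtracted viability expressed as percent of untreated controls and fitted by non-linear regression.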

Where [3] appears, read: read-out: cell viability normalised to control wells (mean of three replicates).
Setting [4] is: read-out: cell viability normalised to control wells (single replicate).

For `Cc1ncsc1-c1ccc([C@H](C)NC(=O)[C@@H]2C[C@@H](O)CN2C(=O)[C@@H](NC(=O)CCCCCCC(=O)N2CCN(C[C@]3(C)CCC(c4ccc(Cl)cc4)=C(CN4CCN(c5ccc(C(=O)NS(=O)(=O)c6ccc(N[C@H](CCN7CCOCC7)CSc7ccccc7)c(S(=O)(=O)C(F)(F)F)c6)cc5)CC4)C3)CC2)C(C)(C)C)cc1` [753b], the “relative Flag-BCL-xL protein content” value in data set [1] (K16-only mutant, 753b-treated 293T, Fig. 5a) is 86 and 85 and 66; in data set [1] (K20-only mutant, 753b-treated 293T, Fig. 5a), 29 and 42 and 46; in data set [1] (WT Flag-BCL-xL, 753b-treated 293T, Fig. 5a, 3 replicates), 34 and 30 and 42.

Regarding `CC1(C)CCC(c2ccc(Cl)cc2)=C(CN2CCN(c3ccc(C(=O)NS(=O)(=O)c4ccc(N[C@H](CCN5CCOCC5)CSc5ccccc5)c(S(=O)(=O)C(F)(F)F)c4)cc3)CC2)C1` [ABT263, navitoclax], in data set [2] (setting [3]), the viability at 72 h, 0.00137174 uM was found to be 108%; the viability at 72 h, 0.00411523 uM stood at 99.8%; the viability at 72 h, 0.037037 uM is 97%; the viability at 72 h, 0.111111 uM was determined as 89.9%. Also, in data set [2] (setting [3]), the viability at 72 h, 0.333333 uM is 80.4%; the viability at 72 h, 1 uM was 81%; the viability at 72 h, 3 uM stood at 80.1%. Also, in data set [2] (setting [4]), the viability at 72 h, 0.00137174 uM was 115%; the viability at 72 h, 0.00411523 uM was 106%; the viability at 72 h, 0.037037 uM amounted to 103%; the viability at 72 h, 0.333333 uM was determined as 80.9%. In data set [2] (setting [4]), the viability at 72 h, 1 uM turned out to be 76.8% and the viability at 72 h, 3 uM came to 83.1%.

As for `Cc1ncsc1-c1ccc([C@H](C)NC(=O)[C@@H]2C[C@@H](O)CN2C(=O)[C@@H](NC(=O)CCCCCC(=O)N2CCN(CC[C@H](CSc3ccccc3)Nc3ccc(S(=O)(=O)NC(=O)c4ccc(N5CCN(CC6=C(c7ccc(Cl)cc7)CCC(C)(C)C6)CC5)cc4)cc3S(=O)(=O)C(F)(F)F)CC2)C(C)(C)C)cc1` [DT2216], the values for the viability at 72 h, 0.00137174 uM in data set [2] (setting [3]) and in data set [2] (setting [4]) were 87.9% and 92.3%, respectively. For the same molecule, the viability at 72 h, 0.00411523 uM is 90.6% in data set [2] (setting [3]) and 96.4% in data set [2] (setting [4]). Also, the viability at 72 h, 0.037037 uM in data set [2] (setting [3]) turned out to be 88.1%; in data set [2] (setting [4]), 89.4%. In addition, the viability at 72 h, 0.111111 uM is 89.7% in data set [2] (setting [3]) and 92.2% in data set [2] (setting [4]). Further, the viability at 72 h, 0.333333 uM in data set [2] (setting [3]) was determined as 96.4%; in data set [2] (setting [4]) it was 102%. For the same molecule, the viability at 72 h, 1 uM was determined as 82.9% in data set [2] (setting [3]) and 80.4% in data set [2] (setting [4]). Also, the viability at 72 h, 3 uM in data set [2] (setting [3]) was 82.1%; in data set [2] (setting [4]) it was 78.4%. For the same molecule, the “relative Flag-BCL-xL protein content” value in data set [1] (K157-only mutant, DT2216-treated 293T, Fig. 1f) was 91 and 97 and 105; in data set [1] (K-ko mutant, DT2216-treated 293T, Fig. 1f), 95 and 102 and 90; in data set [1] (K-ko-G186K mutant, DT2216-treated 293T, Fig. 1f), 81 and 88 and 95; in data set [1] (K-ko-R34K mutant, DT2216-treated 293T, Fig. 1f) it was 50 and 41 and 44; in data set [1] (K-ko-R102K mutant, DT2216-treated 293T, Fig. 1f), 64 and 57 and 51; in data set [1] (K-ko-R132K mutant, DT2216-treated 293T, Fig. 1f) it was 55 and 50 and 58. For the same molecule, the “relative Flag-BCL-xL protein content” value in data set [1] (WT Flag-BCL-xL, DT2216-treated 293T, Fig. 1f, 3 replicates) is 7 and 33 and 22.

Broadly, the viability is a read-out of living cells in per cent, often relative to untreated cells.

The values are drawn from article PMC8617031, “Development of a BCL-xL and BCL-2 dual degrader with improved anti-leukemic activity,” (Nature Communications, 2021).
